Assay results reported in patent EP2926811A1, “ARTEMETHER-CONTAINING PHARMACEUTICAL COMPOSITION, PREPARATION, AND USE THEREOF” (Kunming Pharmaceutical Corp., priority 2012, dated 2014).
Like-named read-outs stand apart in the source and are kept apart here.

Columns and labels:
Type in all cases: cell-based
[1] = test system: MKN-28 cells; assay: modified MTT method, proliferation of MKN-28 cells; conditions: Homo sapiens, MKN-28, 72 h, secondary screening
Method in brief: (§1)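 Log-phase MKN-28, HT-29 or Hep2 cells exposed at 37°C, 5% CO2 to 2–500 µM test samples (DMSO solvent controls 0.5% and 1%), then MTT added and formazan dissolved in SDS/isobutanol/HCl; OD read at 570 nm. Inhibition rate vs control (or solvent) wells; IC50 by LOGIT method, 72 h.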

[2] = test system: Hep2 cells; assay: modified MTT method, proliferation of Hep2 cells; conditions: Homo sapiens, HEp-2, 72 h, secondary screening
Method in brief: as §1

[3] = test system: HT-29 cells; assay: modified MTT method, proliferation of HT-29 cells; conditions: Homo sapiens
Method in brief: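 HT-29 human colon cancer cells in logarithmic growth were seeded into 96-well plates and, once adherent, exposed to test samples at 2, 10, 50, 250 and 500 µM (three parallel wells, 10 µl/well). Plates were incubated at 37°C, 5% CO2, then given MTT (5 mg/ml, 20 µl/well) and a 10% SDS - 5% isobutanol - 0.012 mol/L HCl solubilizer. OD was read at 570 nm, and IC50 was derived by the LOGIT method.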

[4] = test system: HL-60 cells; assay: modified MTT method, proliferation of HL-60 cells; conditions: Homo sapiens, read-out: IC50 on the growth of HL-60 cells
Method in brief: (§2)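 Adherent cells were dosed after attachment, suspension cells at seeding, at 2, 10, 50, 250 and 500 µM in RPMI 1640 (triplicate wells; 0.5% and 1% DMSO solvent controls), at 37°C, 5% CO2. MTT was added, followed by SDS/isobutanol/HCl solubilisation and OD 570 nm. Inhibition was taken versus control (versus solvent if DMSO inhibition >15%), and IC50 by LOGIT.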

[5] = test system: K562 cells; assay: modified MTT method, proliferation of K562 cells; conditions: Homo sapiens, read-out: IC50 on the growth of K562 cells
Method in brief: as §2

[6] = test system: 7 human tumor cell lines; assay: modified MTT method, summary over the panel of human tumor cell lines
Description: HL-60: (human promyelocytic leukemia cell line); K562 (human chronic myelocytic leukemia cell line); HT-29 (human colon cancer cell line); PC-3 (human prostate cancer cell line); A549 (human non-small cell lung cancer cell line); MKN-28 (human gastric cancer cell line); Hep2 (human laryngeal cancer cell line), all of which were purchased from Cell Bank of Shanghai Institutes for Biological Sciences, the Chinese Academy of Sciences.
Influence of the five test samples on the proliferation of 7 human tumor cell lines was determined via a modified MTT method.
Cells in logarithmic growth phase were taken, adjusted to a certain concentration and then added into a 96 well culture plate. After culture of adherent cells for a period until adherence, the test samples were added; and for suspension cells, the test samples were added after inoculation. […] After dissolving in uniformity, it was continued to be placed in the incubator at 37°C, 5% CO2 for a period of time, and the OD value of each well was determined under a wavelength of 570 nm with a microplate reader, according to which the results were calculated.
The inhibition rate was calculated by using Microsoft Excel 2003, and median inhibitory concentration IC50 was calculated with a LOGIT method, which was used as an indicator for judging the inhibitory capability.

[7] = test system: PC-3 cells; assay: modified MTT method, proliferation of PC-3 cells; conditions: Homo sapiens, read-out: IC50 on the growth of PC-3 cells
Method in brief: as §2

[8] = test system: A549 cells; assay: modified MTT method, proliferation of A549 cells; conditions: Homo sapiens, read-out: IC50 on the growth of A549 cells
Method in brief: as §2

[9] = Average, read-out: IC50 on the growth of MKN-28 cells (72 h)
[10] = Batch 1, read-out: IC50 on the growth of MKN-28 cells (72 h)
[11] = Batch 2, read-out: IC50 on the growth of MKN-28 cells (72 h)
[12] = Batch 3, read-out: IC50 on the growth of MKN-28 cells (72 h)
[13] = Batch 1, read-out: IC50 on the growth of Hep2 cells (72 h)
[14] = Batch 2, read-out: IC50 on the growth of Hep2 cells (72 h)
[15] = Batch 3, read-out: IC50 on the growth of Hep2 cells (72 h)
[16] = average, read-out: IC50 on the growth of Hep2 cells (72 h)
[17] = HT-29, 24 h, preliminary screening, Batch 1, 24 h, read-out: IC50 on the growth of HT-29 cells
[18] = HT-29, 24 h, preliminary screening, Batch 2, 24 h, read-out: IC50 on the growth of HT-29 cells
[19] = HT-29, 48 h, preliminary screening, Batch 1, 48 h, read-out: IC50 on the growth of HT-29 cells
[20] = HT-29, 48 h, preliminary screening, Batch 2, 48 h, read-out: IC50 on the growth of HT-29 cells
[21] = HT-29, 72 h, preliminary screening, Batch 1, 72 h, read-out: IC50 on the growth of HT-29 cells
[22] = HT-29, 72 h, preliminary screening, Batch 2, 72 h, read-out: IC50 on the growth of HT-29 cells
[23] = HT-29, 72 h, secondary screening, 72 h, Batch 1, read-out: IC50 on the growth of HT-29 cells (72 h)
[24] = HT-29, 72 h, secondary screening, 72 h, Batch 2, read-out: IC50 on the growth of HT-29 cells (72 h)
[25] = HT-29, 72 h, secondary screening, 72 h, Batch 3, read-out: IC50 on the growth of HT-29 cells (72 h)
[26] = HT-29, 72 h, secondary screening, 72 h, average, read-out: IC50 on the growth of HT-29 cells (72 h)

C[C@@H]1CC[C@H]2[C@@H](C)C(=O)O[C@@H]3O[C@@]4(C)CC[C@@H]1[C@]32OO4 [artemisinin]
IC50 [1, 9]: 970 µM | IC50 [1, 10]: 588 µM | IC50 [1, 11]: 1440 µM | IC50 [1, 12]: 1610 µM | IC50 [2, 13]: 350 µM | IC50 [2, 14]: 271 µM | IC50 [2, 15]: > 1000 µM | IC50 [2, 16]: 952 µM | IC50 [3, 17]: > 1000 µM | IC50 [3, 18]: > 1000 µM | IC50 [3, 19]: > 1000 µM | IC50 [3, 20]: > 1000 µM | IC50 [3, 21]: > 1000 µM | IC50 [3, 22]: > 1000 µM | IC50 [3, 23]: 2350 µM | IC50 [3, 24]: 773 µM | IC50 [3, 25]: 437 µM | IC50 [3, 26]: 545 µM | IC50 ([4]; HL-60, 24 h, Batch 1, 24 h): > 1000 µM | IC50 ([4]; HL-60, 24 h, Batch 2, 24 h): 750 µM | IC50 ([4]; HL-60, 48 h, Batch 1, 48 h): > 1000 µM | IC50 ([4]; HL-60, 48 h, Batch 2, 48 h): 331 µM | IC50 ([4]; HL-60, 72 h, Batch 1, 72 h): > 1000 µM | IC50 ([4]; HL-60, 72 h, Batch 2, 72 h): 577 µM | IC50 ([5]; K562, 24 h, Batch 1, 24 h): > 1000 µM | IC50 ([5]; K562, 24 h, Batch 2, 24 h): > 1000 µM | IC50 ([5]; K562, 24 h, Batch 3, 24 h): > 1000 µM | IC50 ([5]; K562, 48 h, Batch 1, 48 h): > 1000 µM | IC50 ([5]; K562, 48 h, Batch 2, 48 h): > 1000 µM | IC50 ([5]; K562, 48 h, Batch 3, 48 h): 991 µM | IC50 ([5]; K562, 72 h, Batch 1, 72 h): > 1000 µM | IC50 ([5]; K562, 72 h, Batch 2, 72 h): 518 µM | IC50 ([5]; K562, 72 h, Batch 3, 72 h): 449 µM | inhibitory effect on the 7 human tumor cell lines in vitro ([6]; HL-60, K562, A549, HT-29, PC-3, MKN-28, Hep2): no apparent inhibitory effect | IC50 ([7]; PC-3, 24 h, Batch 1, 24 h): > 1 mM | IC50 ([7]; PC-3, 24 h, Batch 2, 24 h): > 1 mM | IC50 ([7]; PC-3, 48 h, Batch 1, 48 h): > 1 mM | IC50 ([7]; PC-3, 48 h, Batch 2, 48 h): > 1 mM | IC50 ([7]; PC-3, 72 h, Batch 1, 72 h): > 1 mM | IC50 ([7]; PC-3, 72 h, Batch 2, 72 h): > 1 mM | IC50 ([8]; A549, 24 h, Batch 1, 24 h): > 1 mM | IC50 ([8]; A549, 24 h, Batch 2, 24 h): 0.421 mM | IC50 ([8]; A549, 48 h, Batch 1, 48 h): > 1 mM | IC50 ([8]; A549, 48 h, Batch 2, 48 h): > 1 mM | IC50 ([8]; A549, 72 h, Batch 1, 72 h): > 1 mM | IC50 ([8]; A549, 72 h, Batch 2, 72 h): > 1 mM

C[C@H]1[C@H](OC(=O)CCC(=O)O)O[C@@H]2O[C@@]3(C)CC[C@H]4[C@H](C)CC[C@@H]1[C@@]24OO3 [artesunate]
IC50 [1, 9]: 27.9 µM | IC50 [1, 10]: 35.3 µM | IC50 [1, 11]: 28.1 µM | IC50 [1, 12]: 21.4 µM | IC50 [2, 13]: 119 µM | IC50 [2, 14]: 93.2 µM | IC50 [2, 15]: 212 µM | IC50 [2, 16]: 149 µM | IC50 [3, 17]: > 1000 µM | IC50 [3, 18]: 323 µM | IC50 [3, 19]: > 1000 µM | IC50 [3, 20]: > 1000 µM | IC50 [3, 21]: > 1000 µM | IC50 [3, 22]: 438 µM | IC50 [3, 23]: 328 µM | IC50 [3, 24]: 306 µM | IC50 [3, 25]: 200 µM | IC50 [3, 26]: 225 µM | IC50 ([4]; HL-60, 24 h, Batch 1, 24 h): > 1000 µM | IC50 ([4]; HL-60, 24 h, Batch 2, 24 h): 269 µM | IC50 ([4]; HL-60, 48 h, Batch 1, 48 h): > 1000 µM | IC50 ([4]; HL-60, 48 h, Batch 2, 48 h): 39.5 µM | IC50 ([4]; HL-60, 72 h, Batch 1, 72 h): > 1000 µM | IC50 ([4]; HL-60, 72 h, Batch 2, 72 h): 145 µM | IC50 ([5]; K562, 24 h, Batch 1, 24 h): > 1000 µM | IC50 ([5]; K562, 24 h, Batch 2, 24 h): > 1000 µM | IC50 ([5]; K562, 24 h, Batch 3, 24 h): 494 µM | IC50 ([5]; K562, 48 h, Batch 1, 48 h): 322 µM | IC50 ([5]; K562, 48 h, Batch 2, 48 h): > 1000 µM | IC50 ([5]; K562, 48 h, Batch 3, 48 h): 141 µM | IC50 ([5]; K562, 72 h, Batch 1, 72 h): 39.3 µM | IC50 ([5]; K562, 72 h, Batch 2, 72 h): > 1000 µM | IC50 ([5]; K562, 72 h, Batch 3, 72 h): 90.1 µM | inhibitory effect in vitro ([6]; on HL-60, K562, MKN-28): only shows inhibitory effect | IC50 ([7]; PC-3, 24 h, Batch 1, 24 h): > 1 mM | IC50 ([7]; PC-3, 24 h, Batch 2, 24 h): > 1 mM | IC50 ([7]; PC-3, 48 h, Batch 1, 48 h): > 1 mM | IC50 ([7]; PC-3, 48 h, Batch 2, 48 h): > 1 mM | IC50 ([7]; PC-3, 72 h, Batch 1, 72 h): > 1 mM | IC50 ([7]; PC-3, 72 h, Batch 2, 72 h): > 1 mM | IC50 ([8]; A549, 24 h, Batch 1, 24 h): > 1 mM | IC50 ([8]; A549, 24 h, Batch 2, 24 h): > 1 mM | IC50 ([8]; A549, 48 h, Batch 1, 48 h): > 1 mM | IC50 ([8]; A549, 48 h, Batch 2, 48 h): 0.272 mM | IC50 ([8]; A549, 72 h, Batch 1, 72 h): > 1 mM | IC50 ([8]; A549, 72 h, Batch 2, 72 h): 0.225 mM
